Measurements reported in patent US8318743B2, “Medicament for the enhancement of cognitive function and neuroprotection” (Egis Gyogyszergyar Nyilvanosan Mukodo Reszvenytarsasag, priority 2006, dated 2012).
Marks after values point to notes of the source that are not given here.

What was measured:
rats = experiment: object recognition test; assay type: in vivo, rat
Excerpt: The object recognition test in rats is based on the observation that when animals are encountered with unknown environment, they scour around and discover the available area. They act similarly in case of unknown objects arranged within their area.
In the present experimental arrangement, one day prior to the actual testing day, animals are placed in a box where they have two minutes to get acquainted with the surroundings. On the first day of the experiment, two identical objects (in the present arrangement, a plastic rinse bottle and a glass bottle) are placed in the box and the length of the period is determined during which the animals spend time while examining the two objects. The length of test period is 4-5 minutes. The difference between the length of the time periods spent with the examination of each object is the so-called discrimination index.
On the second day (24 hours after the first testing period) of the experiment, two different objects are placed in the box, among which one is known for the animals and the other is unknown.
In the case when a memory-enhancing drug is administered to the animals on the first day (e.g. orally, 60 minutes prior to testing), the animals are able to recall the already known objects better and the discrimination index is increased in favour of the unknown object.

male gerbils = experiment: global cerebral ischemia model by bilateral carotid artery occlusion, hippocampal CA1 neuronal damage; assay type: in vivo, gerbil; details: for proportion of the neuronal damage in CA1 region of the hippocampus / Effect %: 0.1 mg/kg ip.; for CA 1 lesion: 0.1 mg/kg ip. 45 minutes after surgery, average score on scale 0-6, four days after 3 min bilateral carotid occlusion; for Effect %: CA1 lesion score versus control animals
Description: The neuroprotective effect of 4-chloro-5-{2-[4-(6-fluoro-1,2-benz[d]isoxazole-3-yl)piperidin-1-yl]ethyl-amino}-2-methyl-3-(2H)pyridazinone of the Formula (I) was tested in gerbils by global cerebral ischemia model by bilateral occlusion of the carotid artery and in rats by focal cerebral ischemia model via the permanent occlusion of the central cerebral artery. Risperidone[3-(2-(4-(6-fluoro-1,2-benz[d]isoxazole-3-yl)-1-piperidinyl)ethyl)-6,7,8,9-tetrahydro-2-methyl-4H-pyrido[1,2-a]pyrimidin-4-one] of the Formula (II) was used as reference compound.
The tests in the global cerebral ischemia model were performed in male gerbils weighing 50-80 g. During surgery, the animals were anaesthetized with ether, and the carotid arteries were set free in the paratracheal region by a ventral incision in the central region. The carotid arteries were separated from the vagosympatic nerve-trunk and were occluded for 3 minutes using artery forceps and subsequently released. The body temperature of the animals was checked during surgery and was kept in the normal range using an infrared lamp (37.5±0.5° C.). The test substance 4-chloro-5-{2-[4-(6-fluoro-1,2-benz[d]isoxazole-3-yl)piperidin-1-yl]ethyl-amino}-2-methyl-3-(2H)pyridazinone of the Formula (I) and the reference substance risperidone of the Formula (II) were administered in a dose of 0.1 mg/kg intraperitoneally 45 minutes after surgery.
Four days after surgery, animals were anaesthetised using pentobarbital-Na (60 mg/kg ip., 10 ml/kg) and the brains were perfused with saline thorough the left ventricle. The perfusion was continued for an additional 30 minutes using fixative solution (200 ml/animal). The fixative solution contained 0.1% of glutaraldehyde, 4% of paraformaldehyde and 0.2% of picric acid in 0.1 M phosphate buffer (pH 7.4). After perfusion, the brains were removed from the skulls and were stored in the above-mentioned fixative solution for at least one week at 4° C. in a refrigerator.
The cerebral part containing the dorsal hippocampus has been dissected into 60-μm thick coronal sections using a freezing microtome. The sections were washed four times by shaking for 30 minutes in 0.1 M phosphate buffer (pH 7.4) during which the cerebral sections were floating in the washing solution. Subsequently the cerebral sections were stained using silver impregnation. The staining by the silver impregnation method comprises (a) immersing the sample into a preparatory solution twice for 5 minutes (the preparatory solution comprises aqueous 2% sodium hydroxide and 0.875% ammonium hydroxide solution); (b) immersing the sample into the impregnating solution for 10 minutes (solution of 0.875% ammonium hydroxide and 0.5% silver nitrate in water), (c) washing the sample twice for 2 minutes and finally for one minute in the solution of 0.5% of sodium carbonate and 0.01% ammonium nitrate in aqueous 29.1% ethanol); (d) development for one minute by immersing the section into a development solution (1-1.5% formaldehyde and 0.01% ammonium nitrate in 9.9% ethanol), (e) fixation three times for three minutes each in 0.5% acetic acid solution. The stained cerebral sections were placed into 0.1 M phosphate buffer (pH 7.4) and subsequently chromic gelatine, mounted on slides and dehydrated (dried), treated with xylene for 10 minutes and the cover plates were attached using DPX histological adhesive (Fluka).
The bilateral neuronal damage in the CAl region of the hippocampus have been evaluated on a six-score scale as follows: 0—no damage observed; 1—0-10% neuronal damage; 2—10-30% neuronal damage; 3—30-50% neuronal damage; 4—50-70% neuronal damage; 5—70-90% neuronal damage; 6—90-100% neuronal damage. The average scores measured in the treated group were expressed in the percentage of the average scores observed in the case of the control animals. The statistical evaluation was carried out by non-parametric Mann-Whitney U-test.

male Wistar rats = experiment: passive avoidance test (step-through); assay type: in vivo, rat; details: for effect on memory in passive avoidance: 0.005 mg/kg p.o.
Description: The passive avoidance tests were carried out in male Wistar rats weighing 200 to 220 g (Charles River, Budapest). The experimental animals were kept in a room having a circadian light-dark periods of 12-12 hours. The light was switched on at 6:00 am. The relative humidity of the room was 60±10%.
The tests were carried out in a so-called step-through type apparatus with five channels which is suitable for testing of passive avoidance learning.
The apparatus comprises two plexiglass boxes of 20×20×16 cm. One of the boxes is clear, the other one is non-transparent, black-painted. There exists a separating wall between the boxes having an opening of 7.5×8 cm. The opening can be opened or closed by a computer-controlled shutter door. The transition of the rat from one box into the other is detected by two parallel photocell rows and the door is automatically shut after the transition of the animal. The floor of the black-painted box consists of stainless steel rods equipped with an electrical circuit suitable for the delivery of an electric shock. There is a 10-W bulb above the door at the light (transparent) side of the apparatus.
The tests were carried out on two subsequent days with a 24-hour time difference.
The first part of the test is the so-called acquisition period, wherein the animal is able to gain specific information characteristic to the situation (upon entry into the dark box, an electric shock is delivered). The second part of the test is the so-called retention period. In this stage, the ability of the animal to remember the information which was collected in the first part is tested (upon entry into the dark part, an electric shock will be delivered, therefore it is less traumatic to stay in the light compartment).
On the first day of the testing (acquisition period), the numbered animals are placed into the clear compartment of the apparatus while the shutter door is closed. After 30 seconds, the door is opened and the animal could freely enter the dark box. At the same time, the clock for the measurement of the transition latency was started. The transition latency is the period of time which elapses between the opening of the shutter door and the transition of the animal from the light compartment into the dark one. When the animal entered the dark box, the clock measuring the latency is stopped. 3 seconds after the entry into the dark compartment, an electric shock of 0.4 mA is delivered for 10 seconds to the animals in the form of a paw shock. Animals belonging to the absolute control groups were not delivered a paw shock. After the electric shock, the animals were immediately removed from the apparatus. A 180-sec period was available for the animals to enter the dark compartment. […] This is the essence of acquisition.
During the second-day test (retention) after 24 hours, the animals were placed into the apparatus again. The subsequent part of the procedure was identical to that performed on the first day with the only difference that except for one group, no electric shock was delivered to the animals. Similarly to the first day, 180 sec was provided for the animals to enter the dark box.
During the tests directed to the determination of the effect of 4-chloro-5-{2-[4-(6-fluoro-1,2-benz[d]isoxazole-3-yl)piperidin-1-yl]ethyl-amino}-2-methyl-3-(2H)pyridazinone of the Formula (I), the experimental animals were treated with the test substance and the reference substance or with vehicle (0.4% methylcellulose) on the second day, 60 minutes before placing the animals into the apparatus. The treatment was carried out orally at a dose of 0.005 mg/kg in a volume of 5 ml/kg.
The statistical evaluation was carried out with multiple way variance analysis. The differences between groups were analyzed by Duncan-test.

[1] = 0.4 mA/10 sec electric shock + treatment 0.005 mg/kg p.o. 60 minutes before test
[2] = treatment 0.005 mg/kg p.o. without electric shock

SMILES | memory functions in object recognition (rats; 0.01 mg/kg) | Discrimination index(s) Day 1 (rats; 0.01 mg/kg p.o., Day 1) [s] | Discrimination index(s) Day 2 (rats; 0.01 mg/kg p.o., Day 2 (24 hours after first testing)) [s] | proportion of the neuronal damage in CA1 region of the hippocampus (male gerbils) | CA 1 lesion (male gerbils) | Effect % (male gerbils) [%] | effect on memory in passive avoidance (male Wistar rats) | Transition latency First Day sec ± SE (male Wistar rats; [1]) | Transition latency First Day sec ± SE (male Wistar rats; [2]) [s]
Cn1ncc(NCCN2CCC(c3noc4cc(F)ccc34)CC2)c(Cl)c1=O [Formula (I), 4-chloro-5-{2-[4-(6-fluoro-1,2-benz[d]isoxazole-3-yl)piperidine-1-yl]ethyl-amino}-2-methyl-3-(2H)pyridazinone] | significantly enhanced | 0.4 ± 0.8 | 10.9 ± 1.4 | significantly decreased | 2.80** | −46 | significantly improved the memory | 155.9 ± 15.5^++ sec | 21.2 ± 8.8
Cc1nc2n(c(=O)c1CCN1CCC(c3noc4cc(F)ccc34)CC1)CCCC2 [Risperidone, 3-(2-(4-(6-fluoro-1,2-benz[d]isoxazole-3-yl)-1-piperidinyl)-ethyl)-6,7,8,9-tetrahydro-2-methyl-4H-pyrido[1,2-a]pyrimidin-4-one, reference compound] | – | – | – | ineffective | 4.67 | −2 | did not exhibit any effect | 85.5 ± 22.0 s | 36.1 ± 15.9
